The record followed here is US8063225B2, “Tricyclic compound derivatives useful in the treatment of neoplastic diseases, inflammatory disorders and immunomodulatory disorders” (Chembridge Corporation, priority 2006, dated 2011).

One test deals with T1, IGF1 receptor (Homo sapiens, UniProt P08069).
T1 construct: MCF7 human breast cancer cells expressing IGF1 receptor; endogenous in cells; host or cells: MCF7 human breast cancer cells
Briefly: ELISA-based assay of IGF1 receptor autophosphorylation inhibition in cells. Particulars: IGF1R phosphorylation inhibition in MCF7 cells. It is filed as cell-based. In a few lines:
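MCF7 cells or NIH 3T3 overexpressing full-length IGF1R, serum-starved overnight, treated with inhibitor 1 h at 37 °C (1% DMSO), then stimulated 10 min with 100 nM IGF-1. Lysates captured on anti-IGF1R-coated plates; receptor phosphotyrosine detected with 4G10-HRP and TMB, absorbance 450 nm.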
In general terms: In an ELISA, binding on a coated surface is turned into a signal by an enzyme label.

A further test concerns the target T2, InsR (Homo sapiens, UniProt P06213).
T2 construct: 6×His- or GST-tagged kinase domain fragments of the corresponding RTKs expressed in baculovirus system; host or cells: baculovirus system
Briefly: Tyrosine kinase assay (Kinase-Glo or AlphaScreen), InsR. Particulars: biochemical tyrosine kinase assay. In a few lines: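 Phosphorylation of poly(Glu-Tyr) by baculovirus-made kinase domains, 10 μM ATP, measured either as ATP depletion (Kinase-Glo, 37° C, 1 h) or phosphotyrosine AlphaScreen (room temperature, 30 min plus 60 min with beads).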
(Kinase-Glo reads ATP consumption through a luciferase reaction.)

T1 sequence (P08069 741-1367 limits assumed): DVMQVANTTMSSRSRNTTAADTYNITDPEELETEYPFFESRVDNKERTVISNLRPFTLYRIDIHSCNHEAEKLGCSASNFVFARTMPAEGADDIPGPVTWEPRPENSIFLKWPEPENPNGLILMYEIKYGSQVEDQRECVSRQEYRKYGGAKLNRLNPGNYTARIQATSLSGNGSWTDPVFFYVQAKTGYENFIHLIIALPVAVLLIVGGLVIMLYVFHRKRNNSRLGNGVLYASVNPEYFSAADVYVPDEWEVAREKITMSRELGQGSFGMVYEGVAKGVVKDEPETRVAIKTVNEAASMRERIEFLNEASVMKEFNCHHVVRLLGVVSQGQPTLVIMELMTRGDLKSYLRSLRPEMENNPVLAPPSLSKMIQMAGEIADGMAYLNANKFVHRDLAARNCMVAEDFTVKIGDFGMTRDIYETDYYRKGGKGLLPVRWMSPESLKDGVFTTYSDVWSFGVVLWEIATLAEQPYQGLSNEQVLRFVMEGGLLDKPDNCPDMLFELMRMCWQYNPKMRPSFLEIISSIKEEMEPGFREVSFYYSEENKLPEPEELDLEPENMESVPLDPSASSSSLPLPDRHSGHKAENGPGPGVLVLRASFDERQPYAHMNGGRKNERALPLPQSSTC
T1 sequence (P08069 31-736 partner limits assumed): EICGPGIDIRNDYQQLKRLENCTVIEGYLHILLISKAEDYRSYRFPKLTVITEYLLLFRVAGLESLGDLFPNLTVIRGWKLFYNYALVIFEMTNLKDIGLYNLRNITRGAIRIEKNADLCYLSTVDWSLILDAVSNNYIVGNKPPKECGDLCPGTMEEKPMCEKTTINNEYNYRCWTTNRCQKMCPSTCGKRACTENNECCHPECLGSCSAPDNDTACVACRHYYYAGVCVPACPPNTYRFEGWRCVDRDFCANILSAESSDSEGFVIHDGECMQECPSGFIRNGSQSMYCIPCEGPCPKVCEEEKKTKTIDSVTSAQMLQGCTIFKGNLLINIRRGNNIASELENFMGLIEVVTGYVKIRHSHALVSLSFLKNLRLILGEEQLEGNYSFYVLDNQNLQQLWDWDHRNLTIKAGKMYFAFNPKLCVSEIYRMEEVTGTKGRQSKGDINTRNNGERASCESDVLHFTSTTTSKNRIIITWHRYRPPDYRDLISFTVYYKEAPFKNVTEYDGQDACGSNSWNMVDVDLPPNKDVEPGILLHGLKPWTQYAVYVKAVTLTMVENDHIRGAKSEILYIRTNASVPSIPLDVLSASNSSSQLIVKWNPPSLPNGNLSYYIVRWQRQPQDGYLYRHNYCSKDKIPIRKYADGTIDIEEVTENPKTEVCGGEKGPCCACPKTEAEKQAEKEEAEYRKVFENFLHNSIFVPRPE
T2 sequence (P06213 1023-1298 limits assumed, species assumed): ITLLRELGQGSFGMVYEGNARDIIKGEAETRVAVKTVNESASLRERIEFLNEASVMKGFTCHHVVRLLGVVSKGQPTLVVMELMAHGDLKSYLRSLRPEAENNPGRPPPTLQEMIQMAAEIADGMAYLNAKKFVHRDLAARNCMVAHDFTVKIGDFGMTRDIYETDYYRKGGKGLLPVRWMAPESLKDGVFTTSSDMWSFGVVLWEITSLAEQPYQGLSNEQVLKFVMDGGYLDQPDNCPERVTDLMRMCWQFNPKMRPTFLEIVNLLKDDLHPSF

As for `Cc1ccc(OC[C@H](O)CNc2cc[nH]c(=O)c2-c2nc3cc4c(cc3[nH]2)C(=O)N(C2CCNCC2)C4=O)c(C)c1` [compound 142], the concentration for half-maximal inhibition (IC50) on IGF1 receptor and against InsR was less than 0.5 µM throughout.

Take `Cc1cc(C)n(C[C@H](O)CNc2cc[nH]c(=O)c2-c2nc3cc4c(cc3[nH]2)C(=O)N(C2CCN(C)CC2)C4=O)n1` [compound 92]: the IC50 (in general, the concentration needed to halve the response being measured) at IGF1 receptor lay in the range of 0.5 to 5 µM; against InsR, 5 to 15 µM.

With `CN1CCC(N2C(=O)c3cc4nc(-c5c(NC[C@@H](O)COc6c(F)ccc(Cl)c6F)cc[nH]c5=O)[nH]c4cc3C2=O)CC1` [compound 95], the half-inhibitory concentration (IC50) is 5 to 15 µM at IGF1 receptor and less than 0.5 µM at InsR.

On to `Cc1cc(C)c(OC[C@H](O)CNc2cc[nH]c(=O)c2-c2nc3cc4c(cc3[nH]2)C(=O)N(C2CCN(C)CC2)C4=O)c(CS(C)(=O)=O)c1` [compound 84], for which the 50% inhibitory concentration (IC50) on IGF1 receptor and against InsR was 0.5 to 5 µM throughout.

Consider `Cc1ccc(OCC(O)CNc2cc[nH]c(=O)c2-c2nc3cc4c(cc3[nH]2)C(=O)N(C2CCN(C)CC2)C4=O)c(C)c1` (stereo not shown) [compound 15], for which the IC50 is 0.5 to 5 µM on IGF1 receptor and less than 0.5 µM against InsR.

As for `COc1cccc(OCC(O)CNc2cc[nH]c(=O)c2-c2nc3cc4c(cc3[nH]2)C(=O)N(C2CCN(C)CC2)C4=O)c1` (stereo not shown) [compound 6], the IC50 at IGF1 receptor and at InsR was 0.5 to 5 µM throughout.

With `CN1CCC(N2C(=O)c3cc4nc(-c5c(NC[C@@H](O)COc6cccc(-c7ccccc7)c6)cc[nH]c5=O)[nH]c4cc3C2=O)CC1` [compound 89], the concentration for half-maximal inhibition (IC50) against IGF1 receptor and at InsR was 0.5 to 5 µM throughout.

With `O=C1c2cc3nc(-c4c(NC[C@@H](O)c5cccc(Cl)c5)cc[nH]c4=O)[nH]c3cc2C(=O)N1CCc1ccncc1` [compound 28], the IC50 on IGF1 receptor is greater than 15 µM; against InsR it was 5 to 15 µM.

Regarding `CC(C)(CO)CN1C(=O)c2cc3nc(-c4c(NC[C@@H](O)c5cccc(Cl)c5)cc[nH]c4=O)[nH]c3cc2C1=O` [compound 26], the IC50 on IGF1 receptor and against InsR was 5 to 15 µM in each case.

In the case of `Cc1ccc(Cl)c(C)c1OC[C@H](O)CNc1cc[nH]c(=O)c1-c1nc2cc3c(cc2[nH]1)C(=O)N(C1CCN(C)CC1)C3=O` [compound 111], the 50% inhibitory concentration (IC50) on IGF1 receptor is greater than 15 µM; against InsR, 0.5 to 5 µM.

For `O=C1c2cc3nc(-c4c(NC[C@@H](O)c5cccc(Cl)c5)cc[nH]c4=O)[nH]c3cc2C(=O)N1C[C@@H]1CCCO1` [compound 29], the IC50 at IGF1 receptor and at InsR was greater than 15 µM throughout.

With `Cc1ccc(OC[C@H](O)CNc2cc[nH]c(=O)c2-c2nc3cc4c(c(C)c3[nH]2)CN(C2CCN(C)CC2)C4=O)c(C)c1` [compound 132], the IC50 at IGF1 receptor was 0.5 to 5 µM; on InsR, less than 0.5 µM.

In the case of `CCN1CCC(N2C(=O)c3cc4nc(-c5c(NC[C@@H](O)COc6ccc(C)cc6C)cc[nH]c5=O)[nH]c4cc3C2=O)CC1` [compound 143], the results for the half-maximal inhibitory concentration (IC50) against IGF1 receptor and against InsR were less than 0.5 µM and 0.5 to 5 µM, respectively.

On to `Cc1ccc(OCC(O)CNc2cc[nH]c(=O)c2-c2nc3cc4c(cc3[nH]2)C(=O)N(CC2CCN(CCO)CC2)C4=O)c(C)c1` (stereo not shown) [compound 37], for which the IC50 on IGF1 receptor was 5 to 15 µM; against InsR it was less than 0.5 µM.

As for `COc1ccc(OC[C@H](O)CNc2cc[nH]c(=O)c2-c2nc3cc4c(cc3[nH]2)C(=O)N(C2CCN(C)CC2)C4=O)c(OC)c1OC` [compound 93], the IC50 on IGF1 receptor was 0.5 to 5 µM; at InsR, less than 0.5 µM.

For `Cc1ccc(OC[C@H](O)CNc2cc[nH]c(=O)c2-c2nc3cc4c(cc3[nH]2)C(=O)N(C2CCN(C)CC2)C4=O)c(C)c1` [compound 59], the IC50 on IGF1 receptor was 0.5 to 5 µM; against InsR it was less than 0.5 µM.

On to `CN1CCC(N2C(=O)c3cc4nc(-c5c(NC[C@@H](O)COc6cccc(OC(F)(F)C(F)F)c6)cc[nH]c5=O)[nH]c4cc3C2=O)CC1` [compound 91], for which the concentration for half-maximal inhibition (IC50) on IGF1 receptor and against InsR was 0.5 to 5 µM throughout.

`CCc1cc(C)ccc1OC[C@H](O)CNc1cc[nH]c(=O)c1-c1nc2cc3c(cc2[nH]1)CN(C1CCN(C)CC1)C3=O` [compound 141]: the values for the half-inhibitory concentration (IC50) on IGF1 receptor and against InsR were 0.5 to 5 µM and less than 0.5 µM, respectively.

As to `Cc1cc(C)c(OC[C@H](O)CNc2cc[nH]c(=O)c2-c2nc3cc4c(cc3[nH]2)C(=O)N(C2CCN(C)CC2)C4=O)c(C)c1` [compound 98], the figures for the concentration for half-maximal inhibition (IC50) against IGF1 receptor and at InsR were 5 to 15 µM and less than 0.5 µM, respectively.

Regarding `CN1CCC(N2C(=O)c3cc4nc(-c5c(NC[C@@H](O)COc6cccc(Cl)c6F)cc[nH]c5=O)[nH]c4cc3C2=O)CC1` [compound 96], the IC50 against IGF1 receptor was 5 to 15 µM; against InsR, less than 0.5 µM.

For the compound `CN1CCC(N2C(=O)c3cc4nc(-c5c(NC[C@@H](O)COc6cccc7ccccc67)cc[nH]c5=O)[nH]c4cc3C2=O)CC1` [compound 87], the IC50 was 0.5 to 5 µM against IGF1 receptor and less than 0.5 µM against InsR.

In the case of `Cc1ccc(OC[C@@H](O)CNc2cc[nH]c(=O)c2-c2nc3cc4c(cc3[nH]2)C(=O)N(C2CCN(C)CC2)C4=O)c(C)c1` [compound 64], the values for the IC50 against IGF1 receptor and on InsR were greater than 15 µM and 0.5 to 5 µM, respectively.

On to `CN1CCC(N2C(=O)c3cc4nc(-c5c(NC[C@@H](O)c6cccc(Cl)c6)cc[nH]c5=O)[nH]c4cc3C2=O)CC1` [compound 1], for which the IC50 against IGF1 receptor and at InsR was less than 0.5 µM throughout.
